Laboratory results reported in paper PMC11369183, “PARP inhibition with rucaparib alone followed by combination with atezolizumab: Phase Ib COUPLET clinical study in advanced gynaecological and triple-negative breast cancers” (British Journal of Cancer, 2024).
Read-outs that look alike come from different tables or passages of the source.

Columns and labels:
[1] = test system: ovarian cancer, patients with measurable disease; design: method as in PMID 32073956; conditions: olaparib alone; cited from earlier work
[2] = test system: cGAS-STING pathway; assay: RNA sequencing signature in longitudinal tumour biopsies: cGAS-STING; assay type: in vivo, human; conditions: during rucaparib run-in, in four of five responders
From the text: (§1) All patients (Parts 1 and 2) were required to have sufficient archival formalin-fixed paraffin-embedded (FFPE) tumour tissue available for planned analyses. […] A further biopsy at disease progression was optional. Tumour and biomarker characteristics are described according to central review result. However, patients could be enrolled or assigned to a cohort based on local test results, to avoid delaying treatment initiation. […] Patients were ineligible if they had previously received treatment with a PARPi, CD137 agonist, or other ICI (including but not limited to anti-PD-1, anti-PD-L1, and anti-CTLA-4 therapeutic antibodies). […] RNA sequencing reads were first aligned to ribosomal RNA sequences to remove ribosomal reads. The remaining reads were aligned to the human reference genome (National Center for Biotechnology Information Build 38) using Genomic Short-read Nucleotide Alignment Program (GSNAP) version 2013-11-01. To quantify gene expression levels, the number of reads mapped to the exons of each RefSeq gene was calculated using the functionality provided by the R/Bioconductor package GenomicAlignments. For each cohort, raw counts for genes were trimmed mean of M-values (TMM)-normalised based on size factors as calculated with CalcNormFactors in the edgeR package. […]

[3] = test system: CD8 T-cell activity signature; assay: RNA sequencing signature in longitudinal tumour biopsies: CD8 T-cell activity; assay type: in vivo, human; conditions: during rucaparib run-in, in four of five responders
From the text: as §1

[4] = test system: DNA damage repair signature; assay: RNA sequencing signature in longitudinal tumour biopsies: DDR; assay type: in vivo, human; conditions: after the rucaparib run-in
From the text: as §1

[5] = clinical; design: species or system human; conditions: in vivo; for Cmax: female
From the text: (§2) No formal statistical analyses were planned.

[6] = test system: Apoptosis signature; assay: RNA sequencing signature in longitudinal tumour biopsies: apoptosis; assay type: in vivo, human; conditions: during run-in, responding patients
From the text: as §1

[7] = test system: CD274 (PD-L1 gene); assay: RNA sequencing in longitudinal tumour biopsies: CD274; assay type: in vivo, human; conditions: after rucaparib run-in, responders (not in non-responders)
From the text: as §1

[8] = From the text: The primary objective was to evaluate the safety and tolerability of the combination by identifying dose-limiting toxicities (DLTs; Supplementary Table 1) that determined the maximum tolerated dose and identifying a potential recommended dose and schedule for subsequent assessments. Safety endpoints included the incidence, nature, and severity of adverse events (AEs) and DLTs according to National Cancer Institute Common Terminology Criteria for Adverse Events version 4.03. Secondary efficacy endpoints comprised objective response rate (ORR) according to Response Evaluation Criteria in Solid Tumours (RECIST) version 1.1, duration of response, progression-free survival (PFS) according to RECIST version 1.1, and overall survival (OS). The PK objective was to determine the PK of rucaparib and atezolizumab combination therapy in plasma and serum, with pre-specified parameters including steady-state maximum concentration observed (Cmax), time to maximum concentration (Tmax), and area under the concentration–time curve (AUC) for rucaparib and serum concentration of atezolizumab in Part 1, and minimum concentration during the dosing interval or trough concentration (Cmin) of rucaparib and serum concentration of atezolizumab in Part 2. The incidence of antidrug antibodies (ADAs) to atezolizumab was an additional secondary endpoint. The study also included pre-specified exploratory biomarker objectives: to evaluate predictive and pharmacodynamic biomarkers of response or resistance to combined rucaparib and atezolizumab therapy in tumour biopsies and blood; and to evaluate additional biomarkers of HRD and novel biomarkers and correlate them with response and/or clinical outcome, including efficacy and safety. No formal statistical analyses were planned.
In Part 1 (dose-finding phase), patients with histologically confirmed ovarian or endometrial cancer who had received at least one prior line of therapy for metastatic disease received varying doses of oral rucaparib (400 mg twice daily in the first cohort, 600 mg twice daily in the second cohort, decreasing to 500 mg in the third cohort if necessary) in combination with a fixed dose of intravenous atezolizumab 1200 mg on Day 1. Cycles were repeated every 21 days and continued until unacceptable toxicity or disease progression if, in the investigator’s opinion, the patient would not derive clinical benefit from continued study treatment. It was planned to enroll ~six to 18 patients in up to three dose cohorts. […] In Part 2 (dose-expansion phase), the recommended Phase II dose was evaluated further for safety, PK, and preliminary activity in two tumour-specific expansion cohorts with an initially targeted enrollment of up to ~50 patients in total. In Cohort 1, eligible patients had platinum-sensitive high-grade serous or grade 3 endometrioid epithelial ovarian, fallopian tube, or primary peritoneal cancer with tumours harbouring a deleterious germline or somatic BRCA mutation (tBRCAmut, Arm A) or a tBRCA-like molecular signature (tBRCA-wild type [wt]/loss of heterozygosity [LOH]high, Arm B). Patients had received one to two prior platinum-containing regimens, with progression >6 months after the last dose of the most recent platinum therapy. In Cohort 2 (Arm C), patients had tBRCAmut or tBRCAwt/LOHhigh TNBC and had received at least one prior line of chemotherapy (without cancer immunotherapy) in the metastatic setting. Part 2 treatment comprised a 21-day run-in period of single-agent rucaparib at the identified recommended rucaparib starting dose (run-in), followed by rucaparib in combination with intravenous atezolizumab 1200 mg on Day 1 (combination). Cycles were repeated every 21 days.

[9] = Atezolizumab serum concentration (sparse PK sampling); assay type: in vivo
From the text: as §2

[10] = test system: antidrug antibodies (ADAs) to atezolizumab; assay: Incidence of antidrug antibodies (ADAs) to atezolizumab; assay type: in vivo, human; conditions: one of 28 patients evaluable for ADA
From the text: as §2

[11] = Part 2 TNBC Arm C, n = 5, run-in
[12] = Part 2 ovarian cancer Arms A + B, n = 14, run-in
[13] = Cycle 1 arithmetic mean (CV), sparse PK sampling, Part 2 ovarian cancer Arm B (tBRCAwt/LOHhigh), n = 4

Molecule: O=C(c1cc(Cc2n[nH]c(=O)c3ccccc23)ccc1F)N1CCN(C(=O)C2CC2)CC1 [olaparib]
- ORR [1]: 72%

Molecule: CNCc1ccc(-c2[nH]c3cc(F)cc4c3c2CCNC4=O)cc1 [rucaparib]
- Increase in cGAS-STING pathway activation [2]: > 100%
- Increase in CD8 + T-cell activity [3]: > 50%
- Patients with decreased DDR signature ([4]; non-responders (by <10%)): one of four
- Patients with decreased DDR signature ([4]; responders): four of five
- Cmax ([5]; human, 400 mg): 2270 ng/mL
- Cmax ([5]; human, 600 mg): 3180 ng/mL
- Inter-individual variability in exposure, AUC ([5]; human): 21.2–41.6%
- Inter-individual variability in exposure, Cmax ([5]; human): 27.4–46.8%
- Inter-individual variability in exposure, Cmin ([5]; human): 28.6–88.7%
- Tmax ([5]; human): 1.5 to 6 h
- Rucaparib AUClast ([5]; human, 400 mg): (n = 2) 15 072 (21.2) h·ng/mL
- Rucaparib AUClast ([5]; human, 600 mg): (n = 6) 22 082 (41.6) h·ng/mL
- Rucaparib Cmin ([5]; human, 21 days): (n = 5) 1180 (52.5) ng/mL
- Dose proportionality of kinetics [5]: dose-proportional kinetics
- Patients with increased apoptosis signature expression [6]: three of five
- Patients with increased CD274 expression [7]: three of five
- Grade 5 AE [8, 11]: 0 n (%)
- Grade 5 AE [8, 12]: 0 n (%)
- AE leading to treatment modification/interruption: Rucaparib ([8]; human, in vivo): 1 (20) n (%)
- AE leading to treatment discontinuation ([8]; human, in vivo, 21 days): 0 n (%)
- AE leading to treatment modification/interruption ([8]; human, in vivo, 21 days): 1 (20) n (%)
- AE leading to treatment modification/interruption: Rucaparib ([8]; human, in vivo, 21 days): 1 (20) n (%)
- Any grade AE ([8]; human, in vivo, 21 days): 5 (100) n (%)
- Grade 3/4 AE ([8]; human, in vivo, 21 days): 2 (40) n (%)
- Treatment-related AE ([8]; human, in vivo, 21 days): 4 (80) n (%)

Molecule: atezolizumab
- Atezolizumab Cmin ([9]; Cycle 1 arithmetic mean (CV), sparse PK sampling, Part 1 Cohort 1, n = 3): (n = 3) 84.3 (32.0) μg/mL
- Atezolizumab Cmin ([9]; Cycle 1 arithmetic mean (CV), sparse PK sampling, Part 1 Cohort 2, n = 5): (n = 5) 96.0 (23.8) μg/mL
- Atezolizumab Cmin ([9]; Cycle 1 arithmetic mean (CV), sparse PK sampling, Part 2 TNBC Arm C, n = 4): (n = 4) 98.7 (26.3) μg/mL
- Atezolizumab Cmin ([9]; Cycle 1 arithmetic mean (CV), sparse PK sampling, Part 2 ovarian cancer Arm A (tBRCAmut), n = 10): (n = 10) 77.2 (22.1) μg/mL
- Atezolizumab Cmax [9, 13]: (n = 4) 438 (9.4) μg/mL
- Atezolizumab Cmin [9, 13]: (n = 4) 95.7 (17.9) μg/mL
- Trough concentrations (Ctrough) ([9]; all trough concentrations exceeded the target concentration for maximal receptor occupancy): > 6000 ng/mL
- Inter-patient variability, Cmax ([9]; atezolizumab): 7.0–35.3%
- Inter-patient variability, Cmin ([9]; atezolizumab): 17.9–32.0%
- Patients positive for treatment-emergent ADAs [10]: 4%
- AE leading to treatment modification/interruption: Atezolizumab ([8]; Part 1 Cohort 1 (rucaparib 400 mg), n = 3): 1 (33) n (%)
- AE leading to treatment modification/interruption: Atezolizumab ([8]; Part 1 Cohort 2 (rucaparib 600 mg), n = 6): 1 (17) n (%)
- AE leading to treatment modification/interruption: Atezolizumab ([8]; Part 2 TNBC Arm C, n = 5, post run-in): 1 (20) n (%)
- AE leading to treatment modification/interruption: Atezolizumab [8, 11]: 0 n (%)
- AE leading to treatment modification/interruption: Atezolizumab ([8]; Part 2 ovarian cancer Arms A + B, n = 14, post run-in): 5 (36) n (%)
- AE leading to treatment modification/interruption: Atezolizumab [8, 12]: 0 n (%)
